# In ChEMBL document CHEMBL4340553 (Bioorg Med Chem, 2019):
# How the values were obtained:
# MKN-45 = test: Cytotoxicity in human MKN45 cells assessed as reduction in cell viability incubated for 72 hrs by MTT assay; settings: MKN-45, 72 h
# HT-29 = test: Cytotoxicity in human HT-29 cells assessed as reduction in cell viability incubated for 72 hrs by MTT assay; settings: HT-29, 72 h
# NCI-H460 = test: Cytotoxicity in human NCI-H460 cells assessed as reduction in cell viability incubated for 72 hrs by MTT assay; settings: NCI-H460, 72 h
# MDA-MB-231 = test: Cytotoxicity in human MDA-MB-231 cells assessed as reduction in cell viability incubated for 72 hrs by MTT assay; settings: MDA-MB-231, 72 h
# [1] = biological target: Epidermal growth factor receptor (Homo sapiens, UniProt P00533); test: Inhibition of EGFR (unknown origin) using poly (Glu, Tyr) 4:1 substrate incubated for 30 mins by HTRF assay
# [2] = Inhibition of VEGFR (unknown origin) using poly (Glu, Tyr) 4:1 substrate incubated for 30 mins by HTRF assay; set-up: species or system Homo sapiens
# [3] = biological target: Platelet-derived growth factor receptor alpha (Homo sapiens, UniProt P16234); test: Inhibition of PDGFRalpha (unknown origin) using poly (Glu, Tyr) 4:1 substrate incubated for 30 mins by HTRF assay
# [4] = biological target: Mast/stem cell growth factor receptor Kit (Homo sapiens, UniProt P10721); test: Inhibition of c-Kit (unknown origin) using poly (Glu, Tyr) 4:1 substrate incubated for 30 mins by HTRF assay
# [5] = biological target: Macrophage-stimulating protein receptor (Homo sapiens, UniProt Q04912); test: Inhibition of RON (unknown origin) using poly (Glu, Tyr) 4:1 substrate incubated for 30 mins by HTRF assay
# [6] = biological target: ALK tyrosine kinase receptor (Homo sapiens, UniProt Q9UM73); test: Inhibition of ALK (unknown origin) using poly (Glu, Tyr) 4:1 substrate incubated for 30 mins by HTRF assay
# [7] = biological target: Vascular endothelial growth factor receptor 1 (Homo sapiens, UniProt P17948); test: Inhibition of FLT1 (unknown origin) using poly (Glu, Tyr) 4:1 substrate incubated for 30 mins by HTRF assay
# [8] = biological target: Platelet-derived growth factor receptor beta (Homo sapiens, UniProt P09619); test: Inhibition of PDGFRbeta (unknown origin) using poly (Glu, Tyr) 4:1 substrate incubated for 30 mins by HTRF assay
# [9] = biological target: Hepatocyte growth factor receptor (Homo sapiens, UniProt P08581); test: Inhibition of c-Met (unknown origin) using poly (Glu, Tyr) 4:1 substrate incubated for 30 mins by HTRF assay
# [10] = biological target: Vascular endothelial growth factor receptor 2 (Homo sapiens, UniProt P35968); test: Inhibition of KDR (unknown origin) using poly (Glu, Tyr) 4:1 substrate incubated for 30 mins by HTRF assay
# [11] = biological target: T1, Receptor-type tyrosine-protein kinase FLT3 (Homo sapiens, UniProt P36888); test: Inhibition of FLT3 (unknown origin) using poly (Glu, Tyr) 4:1 substrate incubated for 30 mins by HTRF assay
# T1 sequence (P36888 whole entry): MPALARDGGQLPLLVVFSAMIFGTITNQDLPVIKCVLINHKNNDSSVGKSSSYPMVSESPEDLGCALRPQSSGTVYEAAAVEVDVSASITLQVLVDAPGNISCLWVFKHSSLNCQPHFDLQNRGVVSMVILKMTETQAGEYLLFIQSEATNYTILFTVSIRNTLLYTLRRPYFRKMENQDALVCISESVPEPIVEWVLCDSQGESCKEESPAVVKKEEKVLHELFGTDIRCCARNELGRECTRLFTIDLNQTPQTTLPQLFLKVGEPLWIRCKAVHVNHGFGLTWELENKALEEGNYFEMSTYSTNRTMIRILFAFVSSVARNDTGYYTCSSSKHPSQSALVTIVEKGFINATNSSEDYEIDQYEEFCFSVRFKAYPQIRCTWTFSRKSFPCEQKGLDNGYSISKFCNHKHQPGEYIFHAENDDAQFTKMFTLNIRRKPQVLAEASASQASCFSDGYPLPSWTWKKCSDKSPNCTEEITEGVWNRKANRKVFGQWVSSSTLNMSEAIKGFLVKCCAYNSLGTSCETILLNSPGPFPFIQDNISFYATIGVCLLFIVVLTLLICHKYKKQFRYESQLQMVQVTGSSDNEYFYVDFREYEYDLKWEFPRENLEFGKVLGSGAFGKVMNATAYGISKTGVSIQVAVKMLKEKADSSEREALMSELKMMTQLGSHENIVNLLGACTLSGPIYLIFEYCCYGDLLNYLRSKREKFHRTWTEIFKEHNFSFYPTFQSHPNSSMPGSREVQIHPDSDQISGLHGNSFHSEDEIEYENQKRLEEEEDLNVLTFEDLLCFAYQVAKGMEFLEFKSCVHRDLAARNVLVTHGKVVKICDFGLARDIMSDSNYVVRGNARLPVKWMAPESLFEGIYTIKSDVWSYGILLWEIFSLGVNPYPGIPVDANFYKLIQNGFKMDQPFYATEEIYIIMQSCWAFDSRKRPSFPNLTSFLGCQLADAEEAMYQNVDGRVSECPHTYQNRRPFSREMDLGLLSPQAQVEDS
# Platelet-derived growth factor receptor beta, sequence (P09619 whole entry): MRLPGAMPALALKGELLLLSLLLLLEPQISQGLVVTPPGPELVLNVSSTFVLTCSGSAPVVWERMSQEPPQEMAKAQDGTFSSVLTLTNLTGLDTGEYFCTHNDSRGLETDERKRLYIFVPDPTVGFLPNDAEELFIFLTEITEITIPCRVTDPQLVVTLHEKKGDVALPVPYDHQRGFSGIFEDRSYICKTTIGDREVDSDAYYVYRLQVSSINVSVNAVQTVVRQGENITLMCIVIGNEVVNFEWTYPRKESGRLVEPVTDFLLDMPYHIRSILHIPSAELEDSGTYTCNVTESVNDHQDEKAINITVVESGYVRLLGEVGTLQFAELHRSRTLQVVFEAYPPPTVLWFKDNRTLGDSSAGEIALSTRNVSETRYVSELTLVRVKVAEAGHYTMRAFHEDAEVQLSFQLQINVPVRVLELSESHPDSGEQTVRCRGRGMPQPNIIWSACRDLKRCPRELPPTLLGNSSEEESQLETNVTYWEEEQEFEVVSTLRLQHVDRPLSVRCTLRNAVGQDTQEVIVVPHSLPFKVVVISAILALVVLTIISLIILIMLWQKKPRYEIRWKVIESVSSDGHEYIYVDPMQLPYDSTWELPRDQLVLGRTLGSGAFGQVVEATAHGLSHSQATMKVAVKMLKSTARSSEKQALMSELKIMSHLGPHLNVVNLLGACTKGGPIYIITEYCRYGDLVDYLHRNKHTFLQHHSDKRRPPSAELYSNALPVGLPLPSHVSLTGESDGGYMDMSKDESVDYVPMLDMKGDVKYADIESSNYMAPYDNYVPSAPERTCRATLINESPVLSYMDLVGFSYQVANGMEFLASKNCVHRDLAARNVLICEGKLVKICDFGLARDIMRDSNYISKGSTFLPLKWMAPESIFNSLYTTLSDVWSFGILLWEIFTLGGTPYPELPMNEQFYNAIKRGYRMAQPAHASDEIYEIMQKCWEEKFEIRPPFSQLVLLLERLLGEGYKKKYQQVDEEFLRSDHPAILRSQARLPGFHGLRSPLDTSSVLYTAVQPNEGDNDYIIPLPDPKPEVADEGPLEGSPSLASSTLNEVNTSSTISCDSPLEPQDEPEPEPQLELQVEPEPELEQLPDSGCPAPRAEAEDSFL
# Epidermal growth factor receptor, sequence (P00533 whole entry): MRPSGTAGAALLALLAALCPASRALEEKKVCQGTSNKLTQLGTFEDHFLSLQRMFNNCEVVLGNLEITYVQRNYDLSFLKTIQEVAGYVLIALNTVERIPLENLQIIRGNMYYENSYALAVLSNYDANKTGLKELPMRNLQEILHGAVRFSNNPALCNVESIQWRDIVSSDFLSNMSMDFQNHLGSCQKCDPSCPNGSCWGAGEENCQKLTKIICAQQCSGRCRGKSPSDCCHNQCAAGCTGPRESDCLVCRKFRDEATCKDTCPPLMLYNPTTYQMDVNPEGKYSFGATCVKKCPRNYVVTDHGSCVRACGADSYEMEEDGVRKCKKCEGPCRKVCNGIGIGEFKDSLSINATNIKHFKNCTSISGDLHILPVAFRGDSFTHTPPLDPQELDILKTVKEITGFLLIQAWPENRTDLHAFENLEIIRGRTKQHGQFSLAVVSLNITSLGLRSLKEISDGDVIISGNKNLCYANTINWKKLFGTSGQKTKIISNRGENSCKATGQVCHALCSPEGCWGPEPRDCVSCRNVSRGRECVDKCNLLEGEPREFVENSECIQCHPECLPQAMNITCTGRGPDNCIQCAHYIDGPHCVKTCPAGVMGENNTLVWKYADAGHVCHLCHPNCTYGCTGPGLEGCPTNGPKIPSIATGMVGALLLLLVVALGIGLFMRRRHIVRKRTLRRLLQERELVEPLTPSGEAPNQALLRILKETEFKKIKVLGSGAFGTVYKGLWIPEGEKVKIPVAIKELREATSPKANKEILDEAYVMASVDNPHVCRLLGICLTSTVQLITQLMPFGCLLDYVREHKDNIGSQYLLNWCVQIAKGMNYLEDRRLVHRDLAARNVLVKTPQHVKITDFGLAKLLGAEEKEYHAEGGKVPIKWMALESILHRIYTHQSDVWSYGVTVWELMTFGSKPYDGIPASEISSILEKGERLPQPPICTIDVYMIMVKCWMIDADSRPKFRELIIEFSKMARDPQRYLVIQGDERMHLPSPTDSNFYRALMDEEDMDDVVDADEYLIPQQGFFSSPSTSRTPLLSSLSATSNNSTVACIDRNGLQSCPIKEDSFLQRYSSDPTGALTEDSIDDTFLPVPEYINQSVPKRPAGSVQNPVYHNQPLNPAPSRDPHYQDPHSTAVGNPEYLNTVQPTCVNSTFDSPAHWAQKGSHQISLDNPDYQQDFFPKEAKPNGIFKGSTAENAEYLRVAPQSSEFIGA
# Hepatocyte growth factor receptor, sequence (P08581 whole entry): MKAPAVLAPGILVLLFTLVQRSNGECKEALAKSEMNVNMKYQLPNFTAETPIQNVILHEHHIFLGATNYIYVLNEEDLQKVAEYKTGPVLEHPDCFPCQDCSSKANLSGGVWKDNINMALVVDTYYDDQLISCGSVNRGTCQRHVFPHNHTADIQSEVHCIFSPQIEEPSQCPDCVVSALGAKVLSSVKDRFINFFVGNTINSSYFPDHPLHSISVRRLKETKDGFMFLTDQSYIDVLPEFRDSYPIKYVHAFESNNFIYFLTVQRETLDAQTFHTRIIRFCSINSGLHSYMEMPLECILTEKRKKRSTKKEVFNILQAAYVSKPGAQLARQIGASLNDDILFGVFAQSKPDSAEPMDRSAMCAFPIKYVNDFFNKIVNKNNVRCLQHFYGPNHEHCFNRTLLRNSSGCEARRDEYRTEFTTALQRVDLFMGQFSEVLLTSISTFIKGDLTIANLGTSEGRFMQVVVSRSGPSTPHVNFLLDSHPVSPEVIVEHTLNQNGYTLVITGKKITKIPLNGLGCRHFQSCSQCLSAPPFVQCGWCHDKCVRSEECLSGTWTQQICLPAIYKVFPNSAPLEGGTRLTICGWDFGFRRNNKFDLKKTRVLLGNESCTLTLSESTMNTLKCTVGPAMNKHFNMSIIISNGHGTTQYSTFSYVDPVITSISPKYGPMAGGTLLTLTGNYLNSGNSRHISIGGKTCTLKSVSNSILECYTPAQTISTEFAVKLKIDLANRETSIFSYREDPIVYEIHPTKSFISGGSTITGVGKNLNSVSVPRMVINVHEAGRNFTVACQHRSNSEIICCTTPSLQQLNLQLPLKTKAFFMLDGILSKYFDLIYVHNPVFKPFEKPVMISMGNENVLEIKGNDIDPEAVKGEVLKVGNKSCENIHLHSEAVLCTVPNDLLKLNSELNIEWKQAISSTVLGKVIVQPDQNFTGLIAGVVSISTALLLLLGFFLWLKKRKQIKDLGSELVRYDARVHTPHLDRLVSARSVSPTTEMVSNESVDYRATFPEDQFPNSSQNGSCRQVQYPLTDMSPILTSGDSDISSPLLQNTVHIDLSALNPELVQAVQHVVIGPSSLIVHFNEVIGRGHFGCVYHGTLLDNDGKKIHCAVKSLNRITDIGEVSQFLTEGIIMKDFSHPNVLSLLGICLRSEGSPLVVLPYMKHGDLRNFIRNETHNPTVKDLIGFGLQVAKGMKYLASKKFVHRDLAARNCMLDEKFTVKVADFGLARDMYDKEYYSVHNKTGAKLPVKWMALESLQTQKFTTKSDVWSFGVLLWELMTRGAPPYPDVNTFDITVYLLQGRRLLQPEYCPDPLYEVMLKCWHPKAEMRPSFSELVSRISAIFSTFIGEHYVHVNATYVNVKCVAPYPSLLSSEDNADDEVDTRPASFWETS
# Platelet-derived growth factor receptor alpha, sequence (P16234 whole entry): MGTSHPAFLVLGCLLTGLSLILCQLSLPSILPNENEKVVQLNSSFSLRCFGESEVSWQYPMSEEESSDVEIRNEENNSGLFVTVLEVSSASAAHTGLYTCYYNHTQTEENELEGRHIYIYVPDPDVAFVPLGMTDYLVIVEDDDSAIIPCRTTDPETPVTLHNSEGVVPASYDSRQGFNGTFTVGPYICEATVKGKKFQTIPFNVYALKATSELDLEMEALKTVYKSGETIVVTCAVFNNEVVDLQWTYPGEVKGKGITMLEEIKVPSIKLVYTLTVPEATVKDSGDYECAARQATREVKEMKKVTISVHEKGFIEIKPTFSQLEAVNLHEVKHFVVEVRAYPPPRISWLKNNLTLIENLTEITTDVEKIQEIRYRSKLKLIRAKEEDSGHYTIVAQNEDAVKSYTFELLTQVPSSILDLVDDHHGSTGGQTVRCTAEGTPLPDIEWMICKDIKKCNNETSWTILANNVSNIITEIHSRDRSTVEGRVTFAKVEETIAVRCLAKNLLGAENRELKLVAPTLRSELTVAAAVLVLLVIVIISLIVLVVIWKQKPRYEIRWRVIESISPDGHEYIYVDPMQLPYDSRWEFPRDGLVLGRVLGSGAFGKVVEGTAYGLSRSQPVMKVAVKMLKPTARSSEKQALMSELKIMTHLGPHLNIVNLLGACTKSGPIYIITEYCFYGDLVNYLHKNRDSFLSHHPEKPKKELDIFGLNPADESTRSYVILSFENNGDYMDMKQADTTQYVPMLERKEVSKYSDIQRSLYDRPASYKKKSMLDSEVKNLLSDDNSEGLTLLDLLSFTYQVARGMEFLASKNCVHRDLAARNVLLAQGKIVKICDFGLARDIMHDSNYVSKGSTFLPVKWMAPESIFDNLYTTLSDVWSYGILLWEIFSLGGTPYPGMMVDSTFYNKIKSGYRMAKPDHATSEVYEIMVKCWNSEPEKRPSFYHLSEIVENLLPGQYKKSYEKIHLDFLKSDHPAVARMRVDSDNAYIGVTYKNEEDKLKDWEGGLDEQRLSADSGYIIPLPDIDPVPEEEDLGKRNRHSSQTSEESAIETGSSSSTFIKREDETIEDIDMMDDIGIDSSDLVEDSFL
SMILES,IC50 (MKN-45),IC50 (HT-29),IC50 (NCI-H460),IC50 (MDA-MB-231),also measured
COc1cc2c(Oc3ccc(NC(=O)NS(=O)(=O)Cc4ccc(C)cc4)cc3F)ccnc2cc1OCCCN1CCCCC1,1130 nM,2170 nM,920 nM,2540 nM,–
COc1cc2nccc(Oc3ccc(NC(=O)NS(=O)(=O)Cc4ccccc4)cc3F)c2cc1OC,1430 nM,3020 nM,1540 nM,2450 nM,–
COc1cc2nccc(Oc3ccc(NC(=O)NS(=O)(=O)Cc4ccc(Cl)cc4)cc3F)c2cc1OC,1420 nM,2880 nM,1450 nM,3160 nM,–
CCCCOc1cc2nccc(Oc3ccc(NC(=O)NS(=O)(=O)Cc4ccc(F)cc4)cc3F)c2cc1OC,1310 nM,2880 nM,1440 nM,2290 nM,–
COc1cc2nccc(Oc3ccc(NC(=O)NS(=O)(=O)Cc4ccccc4C)cc3F)c2cc1OC,3420 nM,6210 nM,3020 nM,5670 nM,–
COc1cc2nccc(Oc3ccc(NC(=O)NS(=O)(=O)Cc4ccc(C(F)(F)F)cc4)cc3F)c2cc1OC,10300 nM,8150 nM,12200 nM,9460 nM,–
COc1cc2nccc(Oc3ccc(NC(=O)NS(=O)(=O)Cc4ccc(C)cc4)cc3F)c2cc1OC,5380 nM,7150 nM,4770 nM,7620 nM,–
COc1cc2c(Oc3ccc(NC(=O)NS(=O)(=O)Cc4ccc(C)cc4)cc3F)ccnc2cc1OCCCN1CCOCC1,1670 nM,3760 nM,1540 nM,3860 nM,–
COc1cc2c(Oc3ccc(NC(=O)NS(=O)(=O)Cc4ccccc4)cc3F)ccnc2cc1OCCCN1CCCC1,610 nM,930 nM,430 nM,1210 nM,–
COc1cc2nccc(Oc3ccc(NC(=O)NS(=O)(=O)Cc4cccc(C)c4)cc3F)c2cc1OC,4540 nM,6030 nM,3870 nM,6560 nM,–
CCCCOc1cc2nccc(Oc3ccc(NC(=O)NS(=O)(=O)Cc4ccccc4)cc3F)c2cc1OC,1720 nM,3120 nM,1840 nM,2400 nM,–
COc1cc2c(Oc3ccc(NC(=O)NS(=O)(=O)Cc4ccc(F)cc4)cc3F)ccnc2cc1OCCCN1CCCC1,64 nM,160 nM,55 nM,490 nM,IC50 [1]: > 10000 nM; IC50 [2]: 689 nM; IC50 [3]: 242 nM; IC50 [4]: 380 nM; IC50 [5]: 375 nM; IC50 [6]: > 10000 nM; IC50 [7]: 418 nM; IC50 [8]: 356 nM; IC50 [9]: 1.98 nM; IC50 [10]: 95 nM; IC50 [11]: 400 nM
CCCCOc1cc2nccc(Oc3ccc(NC(=O)NS(=O)(=O)Cc4ccc(C)cc4)cc3F)c2cc1OC,6480 nM,9320 nM,5870 nM,8980 nM,–
COc1cc2nccc(Oc3ccc(NC(=O)NS(=O)(=O)Cc4cccc(F)c4)cc3F)c2cc1OC,1630 nM,3060 nM,1790 nM,3530 nM,–
COc1cc2c(Oc3ccc(NC(=O)NS(=O)(=O)Cc4ccc(F)cc4)cc3F)ccnc2cc1OCCCN1CCOCC1,120 nM,340 nM,160 nM,780 nM,–
COc1cc2nccc(Oc3ccc(NC(=O)NS(=O)(=O)Cc4ccc(Cl)cc4Cl)cc3F)c2cc1OC,2240 nM,2970 nM,3540 nM,4560 nM,–
COc1cc2nccc(Oc3ccc(NC(=O)NS(=O)(=O)Cc4ccc(Br)cc4)cc3F)c2cc1OC,1420 nM,3120 nM,1650 nM,2260 nM,–
COc1cc2nccc(Oc3ccc(NC(=O)NS(=O)(=O)Cc4ccccc4)cc3)c2cc1OC,2080 nM,4350 nM,2600 nM,3840 nM,–
COc1cc2nccc(Oc3ccc(NC(=O)NS(=O)(=O)Cc4ccc(F)cc4)cc3)c2cc1OC,1320 nM,3250 nM,1980 nM,2640 nM,–
COc1cc2c(Oc3ccc(NC(=O)NS(=O)(=O)Cc4ccccc4)cc3F)ccnc2cc1OCCCN1CCOCC1,330 nM,1280 nM,600 nM,1080 nM,–
COc1cc2c(Oc3ccc(NC(=O)NS(=O)(=O)Cc4ccc(F)cc4)cc3F)ccnc2cc1OCCCN1CCCCC1,230 nM,320 nM,150 nM,600 nM,–
COc1cc2c(Oc3ccc(NC(=O)NS(=O)(=O)Cc4ccccc4)cc3F)ccnc2cc1OCCCN1CCCCC1,650 nM,1230 nM,740 nM,1940 nM,–
COc1cc2nccc(Oc3ccc(NC(=O)NS(=O)(=O)Cc4ccccc4F)cc3F)c2cc1OC,2020 nM,3120 nM,1880 nM,2950 nM,–
COc1cc2nccc(Oc3ccc(NC(=O)NS(=O)(=O)Cc4ccc(F)cc4)cc3F)c2cc1OC,960 nM,2680 nM,1040 nM,2040 nM,–
COc1cc2c(Oc3ccc(NC(=O)C4(C(=O)Nc5ccc(F)cc5)CC4)cc3F)ccnc2cc1OCCCN1CCOCC1 [FORETINIB],–,–,–,–,IC50 [2]: 4.96 nM
